ChEMBL document CHEMBL3137667, “[Drug-induced liver injury; fourteenth updated edition of the bibliographic database of liver injuries and related drugs]” (Gastroenterol Clin Biol, 2004)

What was measured:
[1] = human, serum
[2] = human
[3] = human, serum; remark: listed apart in the source
[4] = human; remark: listed apart in the source
[5] = human; remark: listed apart in the source
[6] = Highest frequency of acute liver toxicity observed during clinical trials, expressed as a percentage. [column '% AIGUE' in source]; conditions: human
[7] = human; remark: listed apart in the source
[8] = human; remark: listed apart in the source
[9] = human; remark: listed apart in the source
[10] = Highest frequency of moderate liver toxicity observed during clinical trials, expressed as a percentage. [column '% BIOL' in source]; conditions: human
[11] = human; remark: listed apart in the source
[12] = human; remark: listed apart in the source
[13] = human, serum, 4383 h
[14] = human; remark: listed apart in the source
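Throughout, for Hepatotoxicity (association with vascular disease): count of indexed literature references reporting vascular liver injury in humans, e.g. peliosis hepatitis, hepatic veno-occlusive disease or Budd-Chiari syndrome.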
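Throughout, for Hepatotoxicity (benign tumour): value is a count of indexed literature references citing a benign tumour confirmed by histopathology.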
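Throughout, for Hepatotoxicity (choleostasis): human cholestatic liver injury, shown by histopathology or by peak ALT or AST elevation over alkaline phosphatase ratio below 2, value counts indexed literature reports.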
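Throughout, for Hepatotoxicity (chronic liver disease): chronic liver injury confirmed by histopathology or persistently raised serum aminotransferase activity beyond 6 months, value given as the count of indexed literature references.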
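Throughout, for Hepatotoxicity (cirrhosis): value is a count of indexed literature references reporting cirrhosis confirmed by histopathology.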
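Throughout, for Hepatotoxicity (cytolytic): human cytolytic liver injury, shown by histopathology or by a ratio above 5 of peak ALT or AST elevation to alkaline phosphatase elevation, value counts indexed references.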
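Throughout, for Hepatotoxicity (granulomatous hepatitis): value is a count of indexed literature references reporting granulomatous liver disease confirmed by histopathology.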
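Throughout, for Hepatotoxicity (malignant tumour): malignant tumour confirmed by histopathology, value gives the count of indexed literature references reporting it.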
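Throughout, for Hepatotoxicity (severe hepatitis): human clinical data: severe hepatitis, meaning potentially life-threatening liver failure or clinically observed cases, the value counts how many indexed literature references report it.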
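Throughout, for Hepatotoxicity (steatosis): steatosis confirmed by histopathology, value is the count of indexed references.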

Row | Structure (SMILES) | Hepatotoxicity (moderate) [1] | Hepatotoxicity (cytolytic) [2] | Hepatotoxicity (acute) [3] | Hepatotoxicity (benign tumour) [4] | Hepatotoxicity (malignant tumour) [5] | Hepatotoxicity (acute) [6] | Hepatotoxicity (steatosis) [7] | Hepatotoxicity (granulomatous hepatitis) [8] | Hepatotoxicity (cirrhosis) [9] | Hepatotoxicity (moderate) [10] | Hepatotoxicity (choleostasis) [11] | Hepatotoxicity (association with vascular disease) [12] | Hepatotoxicity (chronic liver disease) [13] | Hepatotoxicity (severe hepatitis) [14]
1 | Cc1[nH]c(=O)c(C#N)cc1-c1ccncc1 [MILRINONE] | 2 | 0 | 0 | 0 | 0 | 0% | 0 | 0 | 0 | 2% | 0 | 0 | 0 | 0
2 | CCCCC(C)(O)C/C=C/[C@H]1[C@H](O)CC(=O)[C@@H]1CCCCCCC(=O)OC (some centres undefined) [MISOPROSTOL] | 6 | 0 | 0 | 0 | 0 | 0% | 0 | 0 | 0 | 16.7% | 0 | 0 | 0 | 0
3 | CC(/C=N/NC(=N)N)=N\NC(=N)N [MITOGUAZONE] | 1 | 0 | 0 | 0 | 0 | 0% | 0 | 0 | 0 | 18.2% | 0 | 0 | 0 | 0
4 | CCNNC(=O)[C@@H]1[C@H](c2cc(OC)c(OC)c(OC)c2)c2cc3c(cc2[C@H](O)[C@H]1CO)OCO3 [MITOPODOZIDE] | 1 | 0 | 0 | 0 | 0 | 0% | 0 | 0 | 0 | 1.3% | 0 | 0 | 0 | 0
5 | COc1ccc(-c2noc(CC(=O)O)c2-c2ccc(OC)cc2)cc1 [MOFEZOLAC] | 1 | 0 | 0 | 0 | 0 | 0% | 0 | 0 | 0 | 0% | 0 | 0 | 0 | 0
6 | O=C(CCCN1CCN(c2ccc(F)cc2)CC1)NC1c2ccccc2CSc2ccccc21 (centres undefined) [MONATEPIL] | 1 | 0 | 0 | 0 | 0 | 0% | 0 | 0 | 0 | 4.5% | 0 | 0 | 0 | 0
7 | CO[C@@]1(NC(=O)C(C(=O)[O-])c2ccc(O)cc2)C(=O)N2C(C(=O)[O-])=C(CSc3nnnn3C)CO[C@@H]21.[Na+].[Na+] (some centres undefined) [MOXALACTAM DISODIUM] | 13 | 0 | 1 | 0 | 0 | 3.3% | 0 | 0 | 0 | 36.5% | 1 | 0 | 0 | 0
8 | COc1ccc2cc(CCC(C)=O)ccc2c1 [NABUMETONE] | 8 | 1 | 1 | 0 | 0 | 0% | 0 | 0 | 0 | 4.5% | 0 | 0 | 0 | 0
9 | C/N=C(/Cc1ccc2ccccc2c1)NC [NAPACTADINE] | 1 | 0 | 0 | 0 | 0 | 0% | 0 | 0 | 0 | 0% | 0 | 0 | 0 | 0
10 | CCCN1CCO[C@@H]2c3cc(O)ccc3CC[C@H]21 [NAXAGOLIDE] | 1 | 0 | 0 | 0 | 0 | 0% | 0 | 0 | 0 | 11.1% | 0 | 0 | 0 | 0
11 | NCC1CC(=O)N(Cc2ccccc2)C1 (centres undefined) [NEBRACETAM] | 1 | 0 | 0 | 0 | 0 | 0% | 0 | 0 | 0 | 11.1% | 0 | 0 | 0 | 0
12 | CCCc1c2oc(C(=O)O)cc(=O)c2cc2c(=O)cc(C(=O)O)n(CC)c12 [NEDOCROMIL] | 2 | 0 | 0 | 0 | 0 | 0% | 0 | 0 | 0 | 3.3% | 0 | 0 | 0 | 0
13 | CCN[C@@H]1C[C@H](N)[C@@H](O[C@H]2OC(CN)=CC[C@H]2N)[C@H](O)[C@H]1O[C@H]1OC[C@](C)(O)[C@H](NC)[C@H]1O [NETILMICIN] | 5 | 0 | 0 | 0 | 0 | 0% | 0 | 0 | 0 | 29.4% | 0 | 0 | 0 | 0
14 | O=C(OCC(COC(=O)c1cccnc1)(COC(=O)c1cccnc1)COC(=O)c1cccnc1)c1cccnc1 [NICERITROL] | 1 | 0 | 0 | 0 | 0 | 0% | 0 | 0 | 0 | 5% | 0 | 0 | 0 | 0
15 | COC(=O)C1=C(C#N)NC(C)=C(C(=O)OC(C)C)C1c1cccc([N+](=O)[O-])c1 (centres undefined) [NILVADIPINE] | 3 | 0 | 0 | 0 | 0 | 0% | 0 | 0 | 0 | 6.3% | 0 | 0 | 0 | 0
16 | Cc1ncc(CNC(=O)N(CCCl)N=O)c(N)n1 [NIMUSTINE] | 2 | 0 | 0 | 0 | 0 | 0% | 0 | 0 | 0 | 3.6% | 0 | 0 | 0 | 0
